What was measured:
Format in all cases: cell-based
[1] = test system: human iPS cell line HC-6 #10; assay: Effect of TAK1 inhibitor in cell cluster production (Experiment 15); settings: 5z-7-oxozeaenol 2 μM from day 3 (step (3)); day 21
Experimental: At the start of suspension culturing (day 0 after the start of suspension culturing, start of step (1)), Y27632 (final concentration 20 μM), IWP-2 (final concentration 2 μM), SB-431542 (final concentration 1 μM) and CHIR99021 (final concentration 300 nM) were added to the serum-free medium.
On day 3 after the start of suspension culturing, the medium was half exchanged with a serum-free medium being free of Y27632 and BMP4 and containing IWP-2, SB-431542, FGF2, Heparin Sodium, and CHIR99021. In addition, a TAK1 inhibitor 5z-7-oxozeaenol (manufactured by Cayman Chemical) was added to the medium at 4 μM to be a final concentration in the well of 2 μM (start of step (3a)). […]

human iPS cells = assay: Cell cluster production with EGF and second Wnt signaling pathway inhibitory substance (Experiment 6); settings: EGF 20 ng/ml added on day 13 and XAV939 300 nM on day 17 (both added); day 28
Experimental: In Experiment 6, as shown in the upper section of FIG. 17, a cell cluster including an olfactory receptor neuron or a precursor cell thereof was produced by performing step (3c) as step (3) from the beginning, adding EGF from the middle of step (3c), and then culturing in the presence of XAV939 as a second Wnt signaling pathway inhibitory substance. The same manipulations as in Experiment 3 were performed except for those specifically indicated.
Specifically, steps (a), (1) and (2) were started with maintenance-cultured human iPS cells, and then, on day 3 after the start of suspension culturing, the medium was half exchanged with a serum-free medium being free of Y27632 and BMP4 and containing IWP-2, SB-431542, FGF2, Heparin Sodium and K02288 (start of step (3c)). FGF2, Heparin Sodium, and K02288 were included to be final concentrations in the well of 20 ng/ml, 10 μg/ml, and 1 μM, respectively. Thereafter, on days 6 and 10 after the start of suspension culturing, the medium was half exchanged with a serum-free medium being free of Y27632 and BMP4 and containing IWP-2, SB-431542, FGF2, Heparin Sodium and K02288. In addition, on day 13 after the start of suspension culturing, in addition to the above factors, EGF (manufactured by PrimeGene Co., Ltd.) was added to be a final concentration of 20 ng/ml. […]

[2] = test system: human iPS cell line HC-6 #10; assay: Maturation culture of cell clusters in viscous medium (Experiment 16); settings: IGF-1 20 ng/ml, 10% fetal bovine serum and EC23 100 nM added together to the culture medium; day 45
Experimental: Cell clusters were maturation-cultured in a viscous medium in accordance with the method shown in the upper section of FIG. 30. The viscous medium was prepared with reference to Japanese Patent No. 6176770. Specifically, 3 g of methylcellulose (manufactured by Sigma. Aldrich, Inc., viscosity: 4000 cP, M0512) was weighed, and sterilized by autoclaving in a 500 ml wide-open medium bottle containing an agitator, and then 100 ml of medium was added thereto. As the medium, a 1:1 in volume mixture of F-12+Glutamax medium and IMDM+Glutamax medium supplemented with 5% Knockout Serum Replacement, 10% fetal bovine serum (manufactured by Biosera), 450 μM 1-monothioglycerol, lx Chemically defined lipid concentrate, 50 unit/ml penicillin-50 μg/ml streptomycin, 20 ng/ml FGF-TS, 20 ng/ml EGF, 20 ng/ml IGF-1 (manufactured by R&D Systems), 10 μg/ml Heparin Sodium, 1 μM SB431542, 1 μM K02288, 300 nM CHIR99021, and 100 nM EC23 (retinoic acid signaling pathway-activating substance) was used. The medium bottle containing methylcellulose supplemented with the medium was stirred in a cryogenic chamber overnight using a stirrer corresponding to a high viscosity liquid (manufactured by Asahi Rika Factory. Ltd, AMG-H). […]

[3] = test system: human iPS cell line HC-6 #10; assay: Combination use of Wnt signaling pathway-activating substance and inhibitory substance in cell cluster production (Experiment 14)
Description: Cell clusters were produced in accordance with the procedures shown in the upper section of FIG. 28 by using Wnt signaling pathway-activating substance and inhibitory substance in combination. Human iPS cells (HC-6 #10 cell line, obtained from the Institute of Physical and Chemical Research) were subjected to maintenance culturing and step (a) in the same manner as in Experiment 1. The suspension culturing was started on a 96-well culture plate in the same manner as in Experiment 1, except that the number of cells per well was 9×10^3 cells. At the start of suspension culturing (day 0 after the start of suspension culturing, start of step (1)), Y27632 (final concentration 20 μM), IWP-2 (final concentration 2 μM), and SB-431542 (final concentration 1 μM) were added to the serum-free medium. In addition, CHIR99021 (manufactured by Cayman Chemical, Inc.) was added as a Wnt signaling pathway-activating substance such that the final concentration was 300 nM. When the Wnt signaling pathway inhibitory substance IWP-2 and the Wnt signaling pathway-activating substance CHIR99021 are used in combination, β-catenin-dependent Wnt Canonical Pathway is activated and β-catenin-independent Wnt-non-Canonical Pathway is inhibited. On day 2 after the start of suspension culturing, a serum-free medium being free of Y27632 and containing SB-431542, BMP4, IWP-2 and CHIR99021 was added at 100 μl per well (start of step (2)). BMP4 was added to the medium at 3 nM to be a final concentration in the well of 1.5 nM. On day 3 after the start of suspension culturing, the medium was half exchanged with a serum-free medium being free of Y27632 and BMP4 and containing IWP-2, SB-431542, FGF2 and CHIR99021 (start of step (3a)). Thereafter, on days 6 and 10 after the start of suspension culturing, the medium was half exchanged with a serum-free medium being free of Y27632 and BMP4 and containing IWP-2, SB-431542, FGF2, CHIR99021, and K02288 (start of step (3c)). […]

[4] = CHIR99021 300 nM added together with IWP-2 2 μM, day 21

COc1cc(O)c2c(c1)/C=C/C[C@H](O)[C@H](O)C(=O)/C=C\C[C@H](C)OC2=O [TAK1 inhibitor, (3S,5Z,8S,9S,11E)-3,4,9,10-tetrahydro-8,9,16-tri hydroxy-14-methoxy-3-methyl-1H-2-benzoxacyclotetradecin-1,7(8H)-dione]
formation of olfactory epithelium-like tissues on the surface of the cell cluster versus cell cluster produced without the TAK1 inhibitor [1]: more efficient formation of olfactory epithelium-like tissues

EGF: EGF signaling pathway-activating substance, manufactured by PrimeGene (NSDSECPLSHDGYCLHDGVCMYIEALDKYACNCVVGYIGERCQYRDLKWWELR; Epidermal growth factor; UniProt P01133 971-1023, looked up)
stability of non-neural epithelial tissue part including olfactory receptor neuron or precursor cell versus conditions without addition (human iPS cells): more stable

IGF: 20 ng/ml IGF-1 (manufactured by R&D Systems) in the viscous medium
maintenance of olfactory epithelial-like tissues [2]: could further efficiently maintain olfactory epithelial-like tissues

Cc1c[nH]c(-c2cnc(NCCNc3ccc(C#N)cn3)nc2-c2ccc(Cl)cc2Cl)n1 [CHIR99021]
formation of olfactory epithelial-like tissue on the external of the cell cluster [3, 4]: formed an olfactory epithelial-like tissue on the external of the cell cluster
number of dead cells in neural tissues inside of the cell clusters [3, 4]: reduced
extent of CHIR99021 at which Wnt-Canonical Pathway activity promotes survival of nervous tissues inside of the cell cluster and epithelial formation ([3]; combination with IWP-2): ≤ 3 µM

O=c1[nH]c(-c2ccc(C(F)(F)F)cc2)nc2c1CSCC2 [3,5,7,8-Tetrahydro-2-[4-(trifluoromethyl)phenyl]-4H-thiopyrano[4,3-d]pyrimidin-4-one]
stability of non-neural epithelial tissue part including olfactory receptor neuron or precursor cell versus conditions without addition (human iPS cells): more stable

CC1(C)CCC(C)(C)c2cc(C#Cc3ccc(C(=O)O)cc3)ccc21
maintenance of olfactory epithelial-like tissues [2]: could further efficiently maintain olfactory epithelial-like tissues
